According to US11117912B1, “Platinum(II) complexes containing dicyclopentadiene and dithiocarbamate as anticancer agents” (King Fahd University of Petroleum and Minerals, priority 2020, dated 2021):

Assays:
HeLa cells [1] = assay: xCelligence real-time cell analysis (RTCA) cytotoxicity assay, HeLa; type: cell-based, human
Experimental: (§1) The A549 and HeLa cell lines were cultured directly in DMEM (Dulbecco's Modified Eagle Medium), and then supplemented with 10% fetal bovine serum (FBS) and 1% streptomycin/penicillin. Then, the cancer cell samples were kept in a humidified incubator at 37° C. with 5% CO2.
(§2) The cytotoxicity of complexes was measured using xCelligence RTCA DP system (ACEA Biosciences, San Diego, Calif., USA). Briefly, the instrument was positioned in a humidified incubator at 37° C. with 5% CO2. The cytotoxicity experiments were conducted using modified 16-well plate (E-plate) with gold-microelectrodes attached at the base of the wells for the impedance-based attachment detection, cell distribution, and proliferation. A 50 μL of cell-free growth DMEM with 10% FBS was added to the wells. Then, the system was connected to measure the background impedance for each well for 30 min. A549 and HeLa cells were harvested using 0.05% Trypsin-EDTA (ethylenediaminetetraacetic acid), and then counted using LUNA automated cell counter (Logos Biosystem, Seoul, South Korea). 50 μL of the cell suspension was then added directly to each well containing 50 μL of cell-free growth DMEM with 10% FBS—Final to reach cell density of 5×10^3. The plates were left at room temperature for about 30 minutes and then inserted to xCelligence RTCA DP device. The xCelligence RTCA system software v.2.0 automatically monitored the impedance value of individual well. These values are expressed as CI (Cell Index) every 15 minutes. […] Then, cells were real time-monitored for 72 hours. All tested compounds were dissolved in DMSO, while cisplatin in normal saline solution. The final concentration of DMSO was less than 0.1% in each well. For negative control, 0.1% DMSO solution was used. Then IC50 values for all compounds at 24 hours and 72 hours were calculated using RTCA software v.2.0.
(§3) For all impedance profiles, the sigmoidal dose-response curves (FIGS. 2A-D) were obtained, and IC50 values were calculated (see Table 4). The calculations were based upon the CI, which is a relative and dimensionless value representing the impedance change divided by the background value, and thus reflects the overall number of cells and the quality of their attachment [D. Kho, C. MacDonald, R. Johnson, C. P. Unsworth, S. J. O'Carroll, E. du Mez, C. E. Angel, E. S. Graham. […] Biosensors 5 (2015) 199-222, incorporated herein by reference in its entirety]. The CI can change as a function of time, resulting in time-dependent and dose-dependent impedance profiles during an experiment [D. Kho, C. MacDonald, R. Johnson, C. P. Unsworth, S. J. O'Carroll, E. du Mez, C. E. Angel, E. S. Graham. […] Biosensors 5 (2015) 199-222, incorporated herein by reference in its entirety].

A549 cells [2] = assay: xCelligence real-time cell analysis (RTCA) cytotoxicity assay, A549; type: cell-based, human
Experimental: as §1, §2, §3

HeLa cells [3] = assay: Wound healing assay (cell migration); type: cell-based, human; settings: for cells migrated, % of the cell-free area (scratch closure): DMSO control approximately 73%
Experimental: The Culture-Insert 2 Well (ibidi Gmbh, Germany) was placed into micro-plate 24. 70 μL of 5×10^5 of HeLa cells was seeded into the culture-insert. The seeded cells were incubated for 24 hours under a specific condition (37° C., 5% CO2) to form monolayer cells. After 24 hours of the incubation, the culture-inserts were removed and the cells were gently washed with PBS to remove cell debris and detached cells. The cells were then treated with the cell culture mediums containing complex 1 at specific concentrations (1, 3, 10, 30 μM) and containing 0.1% DMSO as control. All assays were conducted in duplicates. In order to analyze the migration capacity, images of the cells were taken at 0 hours, 6 hours, and 12 hours using Optika microscope, Italy. The gap closure was determined using a web-based quantitative image solution (http://www.metavilabs.com/metavi2/index.html)
Cell migration is essential in the development and maintenance of multicellular organism. It plays a central role in tissue formation during embryonic development, organ formation, immune responses, and most importantly (as in this experiment) in wound healing. Wound healing assay is a standard in vitro technique to determine collective cell migration in two dimensions. In this assay, an insert is used to create a cell-free gap in confluent monolayer cells. The wound healing assay is initiated by removing the insert. The cell-free gap is then exposed to the cell culture medium to induce the cells to migrate into the gap until new cell-to-cell contacts are established.
The wound healing images were recorded at three different time intervals using microscope to assess the directional collective migration of the cells. The rate of wound healing was determined by measuring the change in the gap size of the cell-free area after treatment with various concentrations of complex 1 recorded over specific time-intervals (e.g., 0 hour, 6 hours, and 12 hours). The gap was measured for each frame in the wound healing and plotted as a function of time to determine the cell migration rate. The effect of varying concentration of complex 1 (1, […], 10, 30 μM) and 0.1% of DMSO (control cells) against HeLa cell migration rate was studied. […] Meanwhile, the cells treated with four different concentrations of complex 1 (1, 3, 10, 30 μM) migrated approximately 57%, 54%, 49%, and 28%, respectively. […] Further molecular studies are required to understand the mechanism behind the inhibition of cell migration.

A549 cells [4] = assay: Lactate dehydrogenase (LDH) release assay, A549; type: cell-based, human; settings: 72 hours
Experimental: (§4) The release of lactate dehydrogenase (LDH) of A549 and HeLa cells in response to the cytotoxic effect of complexes 1 and 2 was measured using the LDH cytotoxic kit protocol (Dojindo, japan). The A549 and HeLa cells were plated into 96-well plate at 5×10^5 density for overnight. The cells were treated with complexes (1 and 2) at concentrations of IC25 (0.9 μM), IC50 (1.8 […]), and IC100 (3.6 μM) in triplicate for about 72 hours. In the day of reading, 10 μL of the Lysis Buffer was added to each well of the high control. The plate was incubated at 37° C. in CO2 incubator for 30 minutes. Then, 100 μL of the Working Solution was added to each well and incubated at room temperature for 30 minutes. Then, 50 μL of the Stop Solution was added to each well before measuring the absorbance at 490 nm using Mithras 943 micro-plate reader (Berthold Tech, Wildbad, Germany). The high control (DMSO+Cells suspension+lysis buffer) and low control (DMSO+cell suspension) were used to determine the percentage of fold changes in LDH according to the following equation (I). % in LDH changes=(Low control−Test)/(Low control−High control)×100 (I)
(§5) The release of lactate dehydrogenase (LDH) directly into the culture medium is an indication of loss of membrane integrity of a cell due to necrosis or apoptosis. Therefore, the LDH activity in the medium can be used as an indicator for cell membrane integrity, and thus for measuring cytotoxicity. […] The cytotoxic effect of complexes 1 and 2 was evaluated by the release of lactate dehydrogenase (LDH) on treated cells (A549 and HeLa). The cells were treated with the complexes at concentrations of 0.9 μM, 1.8 μM, and 3.6 μM, respectively, for 72 hours.

mice = assay: Acute kidney toxicity study
Text: The mice were separated into three groups ((I), (II), and (III)) with four animals per each cage. Group (I) was served as normal control group, which received only vehicle (0.1 volume % DMSO). […] Six hours prior to the experiment, no food and water were given. […] On the day three, the animals were sacrificed by the overdose of xylazine and ketamine anesthesia. Blood samples were collected for Blood Urea Nitrogen (BUN) and serum creatinine (CRE2) measurements. All mice were allowed one week to acclimatize prior to the experiments (five animals per cage), under standard environmental conditions (12 h light-dark cycle). The animal studies were performed according to the king Saud University ethical committee.
Kidney biochemical markers, BUN and CRE2, were used for nephrotoxicity study.

HeLa cells [5] = assay: Lactate dehydrogenase (LDH) release assay, HeLa; type: cell-based, human; settings: 72 hours
Experimental: as §4, §5

[6] = equimolar single doses of 25 mg/kg, 72 hours

Structure (SMILES)	IC50 (HeLa cells [1]; 24 hours)	IC50 (HeLa cells [1]; 72 hours)	IC50 (A549 cells [2]; A549, 24 hours)	IC50 (A549 cells [2]; A549, 72 hours)	Percent (%) release of LDH (A549 cells [4]; A549, 0.9 μM)	Percent (%) release of LDH (A549 cells [4]; A549, 1.8 μM)	Percent (%) release of LDH (A549 cells [4]; A549, 3.6 μM)	Percent (%) release of LDH (HeLa cells [5]; 0.9 μM)	Percent (%) release of LDH (HeLa cells [5]; 1.8 μM)	Percent (%) release of LDH (HeLa cells [5]; 3.6 μM)	also measured
N.N.[Cl][Pt][Cl] [Cisplatin, reference compound]	> 30 µM	> 30 µM	> 30 µM	> 30 µM	–	–	–	–	–	–	–
C1=CC2C3C=CC(C3)C2C1.CN(C)C(=S)[S][Pt+].F[P-](F)(F)(F)(F)F (centres unmarked) [Complex 1]	1.72 µM	1.87 µM	2.92 µM	1.74 µM	31.93 ± 0.01%	43.33 ± 0.02%	47.00 ± 0.01%	60.16 ± 0.02%	73.07 ± 0.03%	95.57 ± 0.02%	cells migrated, % of the cell-free area (scratch closure) (HeLa cells [3]; 1 μM): approximately 57%; cells migrated, % of the cell-free area (scratch closure) (HeLa cells [3]; 3 μM): ~54%; cells migrated, % of the cell-free area (scratch closure) (HeLa cells [3]; 10 μM): ~49%; cells migrated, % of the cell-free area (scratch closure) (HeLa cells [3]; 30 μM): ~28%; effect on cell migration rate (HeLa cells [3]; 1-30 μM, 0-12 h): slowed down the cell migration rate in a concentration-dependent manner; Blood Urea Nitrogen (BUN) level in Plasma (mice; 72 h after single dose, 25 mg/kg cisplatin or equimolar complex 1, CTR 6.7 ± 0.1): 6.06 ± 0.08; Creatinine (CRE2) level in Plasma (mice; 72 h after single dose, 25 mg/kg cisplatin or equimolar complex 1, CTR 17.4 ± 0.58): 15.8 ± 0.45; BUN and CRE2 levels in response to the complex (in words) (mice; 72 hours): control and normal; physical or abnormal changes (mice; [6]): No physical or abnormal changes; survival of the treatment period (mice; [6]): all animals survived; acute kidney toxicity compared to cisplatin (mice; nephrotoxicity tests): less toxic compared to cisplatin
C1=CC2C3C=CC(C3)C2C1.CCN(CC)C(=S)[S][Pt+].F[P-](F)(F)(F)(F)F (centres unmarked) [Complex 2]	6.1 µM	3.52 µM	7.61 µM	3.37 µM	32.18 ± 0.004%	41.05 ± 0.01%	44.85 ± 0.01%	45.52 ± 0.001%	68.19 ± 0.04%	94.13 ± 0.05%	–
C1=CC2C3C=CC(C3)C2C1.F[P-](F)(F)(F)(F)F.S=C([S][Pt+])N(Cc1ccccc1)Cc1ccccc1 [Complex 3]	3.18 µM	11.4 µM	3.31 µM	7.83 µM	–	–	–	–	–	–	change in cytotoxicity with longer exposure time (HeLa cells [1]; 24 vs 72 hours): a decrease in cytotoxicity was observed with longer exposure time; change in cytotoxicity with longer exposure time (A549 cells [2]; A549, 24 vs 72 hours): a decrease in cytotoxicity was observed with longer exposure time
